Patent US20150259331A1, “PROTOZOAN PARASITE GROWTH INHIBITORS” (Northeastern University, priority 2014, published 2015)
Counter-ions that a name gives are not always drawn. Like-named read-outs stand apart in the source and are kept apart here.

Columns and labels:
[1] = tested on: T. brucei brucei Lister 427; assay: Trypanosome replication assay; format: cell-based, Trypanosoma brucei brucei; details: 48 h, 48 h, values ±7%
HepG2 cells = assay: HepG2 cell toxicity (MTT) assay; format: cell-based
Method: Then 2 μL of DMSO (control) or different concentrations of drugs prepared from 200× DMSO stocks were added to the cultures. […] All experiments were repeated thrice in independent studies where each dose was administered in duplicate (total n=6). HepG2 Cell Toxicity Assay. The 384 well MTT cytotoxicity assay is a modification of the MTT method described by Ferrari et al. optimized for 384-well throughput, with modifications described below.
HepG2 Cell Toxicity assay. The 384 well MTT cytotoxicity assay is a modification of the MTT method described by Ferrari et al.^1 ENREF—26_ENREF—26_ENREF—26 optimized for 384 well throughput. […] 4.25 μL of diluted test compound was then added to the 38.3 μL of media in each well providing a 10 fold final dilution of compound. […] After a 48 hour incubation period, 8 μL of a 1.5 mg/ml solution of MTT diluted in complete MEM media was added to each well. All plates were subsequently incubated in the dark for 1 hour at room temperature. After incubation, the media and drugs in each well was removed by shaking plate over sink, the plates are then left to dry in hood for 15 minutes. […] Plates are put on a 3-D rotator for 15-30 minutes. Absorbance was determined in all wells using a Tecan iControl 1.6 Infinite plate reader.

T. cruzi = T. cruzi growth inhibition; format: cell-based, Trypanosoma cruzi; details: for inhibition at 10 µM: read-out: T. cruzi % inh at 10 μM
L. major promastigote = L. major promastigote assay; format: cell-based
L. major amastigote = L. major amastigote assay; format: cell-based
P. falciparum D6 = P. falciparum D6 assay; format: cell-based; details: strain D6
P. falciparum W2 = P. falciparum W2 assay; format: cell-based
P. falciparum C235 = P. falciparum C235 assay; format: cell-based; details: read-out: P. falciparum C235 (EC50)
P. fal = P. fal assay of Table 13 (strain not given); format: cell-based, P. falciparum
[2] = Trypanosoma brucei, concentration giving 50% inhibition of growth of T brucei brucei Lister 427 cells, read-out: Tbb EC50
[3] = Homo sapiens, HepG2, 48 h, MTT, 48 hour incubation, read-out: HepG2 IC50
[4] = Plasmodium falciparum, strain W2, read-out: P. falciparum W2 (EC50)
[5] = Plasmodium falciparum, strain C235
[6] = Trypanosoma brucei, read-out: Tbb EC50, concentration giving 50% inhibition of growth of T brucei brucei Lister 427 cells
[7] = concentration giving 50% inhibition of growth of T brucei brucei Lister 427 cells, read-out: Tbb EC50

O=S(=O)(c1ccc(-c2ccc3ncnc(Nc4ccc(OCc5ccc(F)cc5)c(Cl)c4)c3c2)cc1)N1CCOCC1 [Compound 20j, N-(3-Chloro-4-((4-fluorobenzyl)oxy)phenyl)-6-(4-(morpholinosulfonyl)phenyl)quinazolin-4-amine Hydrochloride]
EC50 [1, 2]: 1340 nM | EC50 ([1]; concentration giving 50% inhibition of growth of T brucei brucei Lister 427 cells, listed as NEU-566, Hydrochloride, read-out: Tbb EC50): 1300 nM | IC50 (HepG2 cells; [3]): > 15 µM | inhibition at 10 µM (T. cruzi; Trypanosoma cruzi): -1% | EC50 (L. major promastigote; Leishmania major): 1.7 µM | EC50 (L. major amastigote; Leishmania major): > 15 µM | EC50 (P. falciparum D6; Plasmodium falciparum): 170 nM | EC50 (P. falciparum W2; [4]): 360 nM | EC50 (P. falciparum C235; [5]): 240 nM

COc1cccc(COc2ccc(Nc3ncnc4ccc(-c5ccc(S(=O)(=O)N6CCOCC6)cc5)cc34)cc2Cl)c1 [Compound 20k, N-(3-Chloro-4-((3-methoxybenzyl)oxy)phenyl)-6-(4-(morpholinosulfonyl)phenyl)quinazolin-4-amine Hydrochloride]
EC50 [1, 2]: 1430 nM | EC50 ([1]; concentration giving 50% inhibition of growth of T brucei brucei Lister 427 cells, listed as NEU-567, Hydrochloride, read-out: Tbb EC50): 1400 nM | IC50 (HepG2 cells; [3]): > 15 µM | inhibition at 10 µM (T. cruzi; Trypanosoma cruzi): 5% | EC50 (L. major promastigote; Leishmania major): 15 µM | EC50 (L. major amastigote; Leishmania major): 15 µM | EC50 (P. falciparum D6; Plasmodium falciparum): 230 nM | EC50 (P. falciparum W2; [4]): 690 nM | EC50 (P. falciparum C235; [5]): 350 nM

O=S(=O)(c1ccc(-c2ccc3ncnc(Nc4ccc(OCc5ccc(C(F)(F)F)c(F)c5)c(Cl)c4)c3c2)cc1)N1CCOCC1 [Compound 20l, N-(3-Chloro-4-((3-fluoro-4-(trifluoromethyl)benzyl)oxy)-phenyl)-6-(4-(morpholinosulfonyl)phenyl)quinazolin-4-amine Hydrochloride]
EC50 [1, 2]: 540 nM | IC50 (HepG2 cells; [3]): > 15 µM | inhibition at 10 µM (T. cruzi; Trypanosoma cruzi): 21% | EC50 (L. major promastigote; Leishmania major): 14 µM | EC50 (L. major amastigote; Leishmania major): 2.5 µM | EC50 (P. falciparum D6; Plasmodium falciparum): 570 nM | EC50 (P. falciparum W2; [4]): 1110 nM | EC50 (P. falciparum C235; [5]): 640 nM

O=S(=O)(c1ccc(-c2ccc3ncnc(Nc4ccc(OCc5cc(F)cc(F)c5F)c(Cl)c4)c3c2)cc1)N1CCOCC1 [Compound 20m, N-(3-Chloro-4-((2,3,5-trifluorobenzyl)oxy)phenyl)-6-(4-(morpholinosulfonyl)phenyl)quinazolin-4-amine Hydrochloride]
EC50 [1, 2]: 1120 nM | EC50 ([1]; concentration giving 50% inhibition of growth of T brucei brucei Lister 427 cells, listed as NEU-569, Hydrochloride, read-out: Tbb EC50): 1100 nM | IC50 (HepG2 cells; [3]): > 3 µM | inhibition at 10 µM (T. cruzi; Trypanosoma cruzi): 14% | EC50 (L. major promastigote; Leishmania major): 3 µM | EC50 (L. major amastigote; Leishmania major): 3 µM | EC50 (P. falciparum D6; Plasmodium falciparum): 140 nM | EC50 (P. falciparum W2; [4]): 450 nM | EC50 (P. falciparum C235; [5]): 240 nM

O=S(=O)(c1ccc(-c2ccc3ncnc(Nc4ccc(OCc5cccc(F)c5)cc4)c3c2)cc1)N1CCOCC1 [Compound 20n, N-(4-((3-Fluorobenzyl)oxy)phenyl)-6-(4-(morpholinosulfonyl)phenyl)quinazolin-4-amine]
EC50 [1, 2]: 650 nM | IC50 (HepG2 cells; [3]): > 15 µM | inhibition at 10 µM (T. cruzi; Trypanosoma cruzi): 10% | EC50 (L. major promastigote; Leishmania major): 0.48 µM | EC50 (L. major amastigote; Leishmania major): 0.47 µM | EC50 (P. falciparum D6; Plasmodium falciparum): 440 nM | EC50 (P. falciparum W2; [4]): 2000 nM | EC50 (P. falciparum C235; [5]): 850 nM

COc1cc(Nc2ncnc3ccc(-c4ccc(S(=O)(=O)N5CCOCC5)cc4)cc23)ccc1OCc1cccc(F)c1 [Compound 20o, N-(4-((3-Fluorobenzyl)oxy)-3-methoxyphenyl)-6-(4-(morpholinosulfonyl)phenyl)quinazolin-4-amine]
EC50 [1, 2]: 1880 nM | EC50 ([1]; concentration giving 50% inhibition of growth of T brucei brucei Lister 427 cells, listed as NEU-570, read-out: Tbb EC50): 1900 nM | IC50 (HepG2 cells; [3]): > 15 µM | inhibition at 10 µM (T. cruzi; Trypanosoma cruzi): 2% | EC50 (L. major promastigote; Leishmania major): > 15 µM | EC50 (L. major amastigote; Leishmania major): > 15 µM | EC50 (P. falciparum D6; Plasmodium falciparum): 440 nM | EC50 (P. falciparum W2; [4]): 650 nM | EC50 (P. falciparum C235; [5]): 600 nM

Fc1cccc(COc2ccc(Nc3ncnc4ccc(-c5ccc(N6CCOCC6)cc5)cc34)cc2Cl)c1 [Compound 23b, N-(3-Chloro-4-((3-fluorobenzyl)oxy)phenyl)-6-(4-morpholinophenyl)quinazolin-4-amine]
EC50 [1, 6]: 1910 nM | EC50 ([1]; read-out: Tbb EC50, concentration giving 50% inhibition of growth of T brucei brucei Lister 427 cells, listed as NEU-733): 1900 nM | IC50 (HepG2 cells; [3]): 9.6 µM | inhibition at 10 µM (T. cruzi; Trypanosoma cruzi): 10% | EC50 (L. major promastigote; Leishmania major): 4.4 µM | EC50 (L. major amastigote; Leishmania major): > 15 µM | EC50 (P. falciparum D6; Plasmodium falciparum): 270 nM | EC50 (P. falciparum W2; [4]): 1100 nM | EC50 (P. falciparum C235; [5]): 290 nM

Fc1cccc(COc2ccc(Nc3ncnc4ccc(-c5ccc(CN6CCOCC6)cc5)cc34)cc2Cl)c1 [Compound 23d]
EC50 [1, 7]: 990 nM | IC50 (HepG2 cells; MTT, 48 hour incubation, read-out: HepG2 IC50): 12.9 µM | EC50 (T. cruzi): 0.6 µM | EC50 (L. major promastigote): 2.7 µM | EC50 (L. major amastigote): 5.9 µM | EC50 (P. falciparum D6): 64 nM | EC50 (P. falciparum W2; strain W2, read-out: P. falciparum W2 (EC50)): 100 nM | EC50 (P. falciparum C235; strain C235): 85 nM

Fc1cccc(COc2ccc(Nc3ncnc4ccc(-c5cccc(N6CCCCC6)c5)cc34)cc2Cl)c1 [Compound 23g, N-(3-Chloro-4-((3-fluorobenzyl)oxy)phenyl)-6-(3-(piperidin-1-yl)phenyl)quinazolin-4-amine]
EC50 [1, 6]: 760 nM | IC50 (HepG2 cells; Homo sapiens, HepG2, 48 h, read-out: HepG2 IC50, MTT, 48 hour incubation): > 15 µM | inhibition at 10 µM (T. cruzi; Trypanosoma cruzi): 24% | EC50 (L. major promastigote; Leishmania major): > 15 µM | EC50 (L. major amastigote; Leishmania major): > 15 µM | EC50 (P. falciparum D6; Plasmodium falciparum): 640 nM | EC50 (P. falciparum W2; Plasmodium falciparum, W2, read-out: P. falciparum W2 (EC50)): 1800 nM | EC50 (P. falciparum C235; Plasmodium falciparum): 1100 nM

O=C(c1cccc(-c2ccc3ncnc(Nc4ccc(OCc5cccc(F)c5)c(Cl)c4)c3c2)c1)N1CCCCC1 [Compound 23k, (3-(4-((3-Chloro-4-((3-fluorobenzyl)oxy)phenyl)amino)-quinazolin-6-yl)phenyl)(piperidin-1-yl)methanone]
EC50 [1, 6]: 140 nM | IC50 (HepG2 cells; [3]): > 6 µM | EC50 (T. cruzi; Trypanosoma cruzi): > 50 µM | EC50 (L. major promastigote; Leishmania major): 3.5 µM | EC50 (L. major amastigote; Leishmania major): 3.5 µM | EC50 (P. falciparum D6; Plasmodium falciparum): 520 nM | EC50 (P. falciparum W2; [4]): 960 nM | EC50 (P. falciparum C235; [5]): 570 nM

Clc1cc(Nc2ncnc3ccc(-c4cccc(N5CCOCC5)c4)cc23)ccc1OCc1ccccc1 [Compound 23m, N-(4-(Benzyloxy)-3-chlorophenyl)-6-(3-morpholinophenyl)-quinazolin-4-amine]
EC50 [1, 2]: 230 nM | IC50 (HepG2 cells; [3]): > 20 µM | EC50 (T. cruzi; Trypanosoma cruzi): 1.3 µM | EC50 (L. major promastigote; Leishmania major): 6.6 µM | EC50 (L. major amastigote; Leishmania major): > 15 µM | EC50 (P. falciparum D6; Plasmodium falciparum): 790 nM | EC50 (P. falciparum W2; [4]): 1700 nM | EC50 (P. falciparum C235; [5]): 720 nM

c1ccc(COc2ccc(Nc3ncnc4ccc(-c5cccc(N6CCOCC6)c5)cc34)cc2)cc1 [Compound 23n, N-(4-(Benzyloxy)phenyl)-6-(3-morpholinophenyl)-quinazolin-4-amine]
EC50 [1, 2]: 180 nM | IC50 (HepG2 cells; [3]): > 20 µM | inhibition at 10 µM (T. cruzi; Trypanosoma cruzi): 37% | EC50 (L. major promastigote; Leishmania major): 2.7 µM | EC50 (L. major amastigote; Leishmania major): > 15 µM | EC50 (P. falciparum D6; Plasmodium falciparum): 20000 nM | EC50 (P. falciparum W2; [4]): 20000 nM | EC50 (P. falciparum C235; [5]): 20000 nM

c1ccc(Nc2ncnc3ccc(-c4cccc(N5CCOCC5)c4)cc23)cc1 [Compound 23o, 6-(3-Morpholinophenyl)-N-phenylquinazolin-4-amine]
EC50 [1, 2]: 11000 nM | IC50 (HepG2 cells; [3]): 7.02 µM | EC50 (T. cruzi; Trypanosoma cruzi): 6.72 µM | EC50 (L. major promastigote; Leishmania major): 9.4 µM | EC50 (L. major amastigote; Leishmania major): > 15 µM | EC50 (P. falciparum D6; Plasmodium falciparum): 3100 nM | EC50 (P. falciparum W2; [4]): 3300 nM | EC50 (P. falciparum C235; [5]): 4600 nM

O=S(=O)(c1ccc(-c2ccc3c(Nc4ccc(OCc5ccccc5)c(Cl)c4)ccnc3c2)cc1)N1CCOCC1 [NEU-944, N-(4-(Benzyloxy)-3-chlorophenyl)-7-(4-(morpholinosulfonyl)phenyl)quinolin-4-amine]
EC50 [1, 2]: 240 nM | EC50 (T. cruzi; Trypanosoma cruzi): 3.5 µM | EC50 (P. fal; Plasmodium falciparum): 16 nM

CN1CCN(S(=O)(=O)c2ccc(-c3ccc4ccnc(Nc5ccc(OCc6cccc(F)c6)c(Cl)c5)c4c3)cc2)CC1 [NEU-950, N-(3-Chloro-4-((3-fluorobenzyl)oxy)phenyl)-7-(4-((4-methylpiperazin-1-yl)sulfonyl)phenyl)isoquinolin-1-amine]
EC50 [1, 2]: 1800 nM | EC50 (T. cruzi; Trypanosoma cruzi): > 50 µM | EC50 (L. major promastigote; Leishmania major): > 15 µM | EC50 (L. major amastigote; Leishmania major): > 15 µM | EC50 (P. fal; Plasmodium falciparum): 40 nM

CN1CCN(S(=O)(=O)c2ccc(-c3ccc4c(Nc5ccc(OCc6cccc(F)c6)c(Cl)c5)nccc4c3)cc2)CC1 [NEU-951, N-(3-Chloro-4-((3-fluorobenzyl)oxy)phenyl)-6-(4-((4-methylpiperazin-1-yl)sulfonyl)phenyl)isoquinolin-1-amine]
EC50 [1, 2]: 100 nM | EC50 (T. cruzi; Trypanosoma cruzi): > 50 µM | EC50 (L. major promastigote; Leishmania major): 2.7 µM | EC50 (L. major amastigote; Leishmania major): > 15 µM | EC50 (P. fal; Plasmodium falciparum): 110 nM

CN1CCN(S(=O)(=O)c2ccc(-c3ccc4ncc(C#N)c(Nc5ccc(OCc6cccc(F)c6)c(Cl)c5)c4c3)cc2)CC1 [NEU-993]
EC50 [1, 7]: 1100 nM | EC50 (L. major promastigote): > 15 µM | EC50 (P. fal): 82 nM
